{"source": "patent US20050222266A1", "about": "“2-indanylamino derivatives for the therapy of chronic pain” (priority 2002, published 2005)", "key": {"[1]": {"test_system": "formalin-induced licking and flinching", "assay": "mouse formalin test, 9 day treatment (tolerance)", "type": "in vivo, mice", "procedure": "The mice paw formalin test was performed as described by Wheeler-Aceto et al. (Psychopharmacology 104:35-44, 1991). Briefly, the day before the formalin injection, mice were placed individually into clear plastic cylinders for 30 minutes of adaptation. The day of testing 20 μl of 1% formalin was injected into the plantar surface of the left hind paw and the animals were again placed into the plastic cylinder for the behavioural observation. The amount of time, in seconds, the animals spent licking and flinching (L/F) the injected paw for the first 5 min (early phase), and then from 10 to 40 min(late phase) after formalin injection, was used as measurement of intensity of pain. CHF 3381 10-100 mg/kg i.p. and 25-200 mg/kg p.o. or the corresponding vehicles, were administered 15 and 30 min before formalin injection, respectively.\nMoreover, the formalin test was used to examine whether tolerance develops with respect to the antihyperalgesic effect of CHF 3381 after chronic treatment in comparison with the standard opioid morphine. Briefly, mice were divided randomly into five groups (12 mice per group) and administered once daily for 8 days as follows: three groups with saline i.p., one group with CHF 3381 60 mg/kg i.p. and one group with morphine 20 mg/kg i.p. On ninth day these groups were treated in following way: one saline pre-treated group was treated with saline i.p. (g1); two saline pre-treated group were treated with CHF 3381 30 mg/kg i.p. (g2) and with morphine 6 mg/kg i.p. (g3), respectively; the group pre-treated with CHF 3381 60 mg/kg was treated with CHF 3381 30 mg/kg i.p. (g4) and the group pre-treated with morphine 20 mg/kg was treated with morphine 6 mg/kg i.p.(g5), a dose that was previously shown to be active in the formalin test. CHF 3381 and morphine were administered 15 and 30 min before formalin injection, respectively."}, "[2]": {"test_system": "mechanical hyperalgesia in streptozotocin (STZ)-induced diabetic neuropathy", "assay": "streptozotocin-induced diabetic neuropathy, paw pressure test", "type": "in vivo, rat", "settings": "100 mg/kg p.o.", "procedure": "The objective of this study was to assess the antinociceptive effects of CHF 3381 (25, 50 and 100 mg/kg p.o.) and gabapentin (100 mg/kg p.o) on mechanical hyperalgesia in streptozotocin (STZ)-induced diabetic neuropathy in rats. Diabetes was induced by intraperitoneal injection of STZ (75 mg/kg), and 23 days later its presence was confirmed by measuring of tail vein blood glucose levels and only rats with […] were included in the study.\nAfter 25 days, distilled water, CHF3381 and gabapentin were administered 60 minutes before pain measurement. The nociceptive threshold was evaluated in all groups using a mechanical nociceptive stimulation (paw pressure test).\nAn increasing pressure (grams of contact pressure) was applied onto the both hind paws of the animal until a nociceptive reaction (vocalisation or paw withdrawal) was determined. The results, expressed as the percentage variation of the nociceptive threshold calculated respect the mean value of the vehicle-treated diabetic group, are reported in Table 2."}, "rat MES model": {"test_system": "rat MES model", "settings": "cited from earlier work"}, "[3]": {"settings": "G3: 6 mg/kg i.p. on ninth day after 8 days saline"}, "[4]": {"settings": "G5: 6 mg/kg i.p. on ninth day after 8 days morphine 20 mg/kg i.p."}}}
{"smiles": "CN1CC[C@]23c4c5ccc(O)c4O[C@H]2[C@@H](O)C=C[C@H]3[C@H]1C5", "note": "[Morphine, morphine, reference compound]", "values": [{"measurement": "Early phase", "setting": "[1]; [3]", "value": "52 ± 15", "unit": "s"}, {"measurement": "Late phase", "setting": "[1]; [3]", "value": "91 ± 21", "unit": "s"}, {"measurement": "Early phase", "setting": "[1]; [4]", "value": "95 ± 9", "unit": "s"}, {"measurement": "Late phase", "setting": "[1]; [4]", "value": "175 ± 22", "unit": "s"}, {"measurement": "antihyperalgesic action after chronic treatment (tolerance)", "setting": "[1]; once daily for 8 days, test on ninth day", "value": "failed to show such actions"}]}
{"smiles": "NCC1(CC(=O)O)CCCCC1", "note": "[Gabapentin, gabapentin, reference compound]", "values": [{"measurement": "Nociceptive threshold", "setting": "[2]; 60 minutes before measurement", "value": "229.2 ± 32.3", "unit": "g"}, {"measurement": "% variation of the nociceptive threshold", "setting": "[2]; vs vehicle-treated diabetic group", "value": 68, "unit": "%"}]}
{"smiles": "CC(NC1Cc2ccccc2C1)C(N)=O.Cl", "note": "(stereo not shown) [2-(2-indanylamino)-propanamide hydrochloride]", "values": [{"measurement": "anti-convulsivant activity", "setting": "rat MES model", "value": "anti-convulsivant activity"}]}
{"smiles": "CN(CC(N)=O)C1Cc2ccccc2C1.Cl", "note": "[N-2(indanyl)-N-methyl glicinamide hydrochloride]", "values": [{"measurement": "anti-convulsivant activity", "setting": "rat MES model", "value": "anti-convulsivant activity"}]}
{"smiles": "Cl.NC(=O)C(CO)NC1Cc2ccccc2C1", "note": "(stereo not shown) [3-hydroxy-2-(2-indanylamino)-propanamide hydrochloride]", "values": [{"measurement": "anti-convulsivant activity", "setting": "rat MES model", "value": "anti-convulsivant activity"}]}
